Results as given in patent US20200031866A1, “PEPTIDE INHIBITORS OF SODIUM CHANNELS” (SPYRYX BIOSCIENCES, INC., priority 2016, published 2020).
Square brackets hold non-standard residues; d marks the D form. Peptide text beside a SMILES is read from it.

How the values were obtained:
[1] = biological target: T1, alpha-ENaC (Homo sapiens, UniProt P37088+P51168+P51170); test: Internalization of alpha-ENaC in HEK293T cells, GFP-tagged alpha-ENaC co-expressed with beta and gamma ENaC; type: cell-based; conditions: beta-ENaC co-expressed, FIGS. 5A-5U
T1 construct: expressed in transfected cells; host or cells: HEK293T
T1 sequence (P37088 1-669): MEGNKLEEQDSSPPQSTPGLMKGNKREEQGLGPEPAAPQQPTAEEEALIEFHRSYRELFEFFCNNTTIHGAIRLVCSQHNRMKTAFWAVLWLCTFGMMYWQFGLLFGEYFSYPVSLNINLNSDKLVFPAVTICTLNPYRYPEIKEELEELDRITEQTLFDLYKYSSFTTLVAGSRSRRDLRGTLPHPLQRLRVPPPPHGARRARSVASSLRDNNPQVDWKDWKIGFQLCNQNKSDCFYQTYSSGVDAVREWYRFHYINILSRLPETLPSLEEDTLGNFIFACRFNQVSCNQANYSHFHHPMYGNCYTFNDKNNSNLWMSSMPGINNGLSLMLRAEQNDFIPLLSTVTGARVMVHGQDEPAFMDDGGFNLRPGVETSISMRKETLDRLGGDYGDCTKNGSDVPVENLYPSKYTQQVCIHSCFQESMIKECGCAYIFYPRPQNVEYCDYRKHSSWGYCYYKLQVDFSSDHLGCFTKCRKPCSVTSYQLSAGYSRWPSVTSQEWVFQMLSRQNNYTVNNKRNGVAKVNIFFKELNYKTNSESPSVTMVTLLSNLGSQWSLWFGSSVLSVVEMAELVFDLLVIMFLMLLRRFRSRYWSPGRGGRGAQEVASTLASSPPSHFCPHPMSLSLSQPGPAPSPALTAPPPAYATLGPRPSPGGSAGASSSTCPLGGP
T1 sequence (P51168 1-640): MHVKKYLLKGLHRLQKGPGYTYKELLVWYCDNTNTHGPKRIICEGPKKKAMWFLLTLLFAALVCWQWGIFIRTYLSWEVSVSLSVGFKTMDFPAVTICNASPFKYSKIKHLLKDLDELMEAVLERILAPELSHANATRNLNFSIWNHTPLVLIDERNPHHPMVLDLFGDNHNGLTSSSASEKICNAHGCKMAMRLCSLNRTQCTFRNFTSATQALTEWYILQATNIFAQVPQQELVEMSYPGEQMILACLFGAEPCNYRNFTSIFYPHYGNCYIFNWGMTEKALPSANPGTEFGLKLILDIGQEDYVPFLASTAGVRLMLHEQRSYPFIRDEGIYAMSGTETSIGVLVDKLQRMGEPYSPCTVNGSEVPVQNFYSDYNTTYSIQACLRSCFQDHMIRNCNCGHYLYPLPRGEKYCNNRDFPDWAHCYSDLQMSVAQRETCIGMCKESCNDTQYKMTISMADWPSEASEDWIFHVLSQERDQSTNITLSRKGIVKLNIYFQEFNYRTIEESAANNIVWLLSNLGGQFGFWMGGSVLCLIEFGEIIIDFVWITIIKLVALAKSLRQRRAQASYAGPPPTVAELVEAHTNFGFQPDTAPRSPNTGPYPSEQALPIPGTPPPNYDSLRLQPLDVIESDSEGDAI
T1 sequence (P51170 1-649): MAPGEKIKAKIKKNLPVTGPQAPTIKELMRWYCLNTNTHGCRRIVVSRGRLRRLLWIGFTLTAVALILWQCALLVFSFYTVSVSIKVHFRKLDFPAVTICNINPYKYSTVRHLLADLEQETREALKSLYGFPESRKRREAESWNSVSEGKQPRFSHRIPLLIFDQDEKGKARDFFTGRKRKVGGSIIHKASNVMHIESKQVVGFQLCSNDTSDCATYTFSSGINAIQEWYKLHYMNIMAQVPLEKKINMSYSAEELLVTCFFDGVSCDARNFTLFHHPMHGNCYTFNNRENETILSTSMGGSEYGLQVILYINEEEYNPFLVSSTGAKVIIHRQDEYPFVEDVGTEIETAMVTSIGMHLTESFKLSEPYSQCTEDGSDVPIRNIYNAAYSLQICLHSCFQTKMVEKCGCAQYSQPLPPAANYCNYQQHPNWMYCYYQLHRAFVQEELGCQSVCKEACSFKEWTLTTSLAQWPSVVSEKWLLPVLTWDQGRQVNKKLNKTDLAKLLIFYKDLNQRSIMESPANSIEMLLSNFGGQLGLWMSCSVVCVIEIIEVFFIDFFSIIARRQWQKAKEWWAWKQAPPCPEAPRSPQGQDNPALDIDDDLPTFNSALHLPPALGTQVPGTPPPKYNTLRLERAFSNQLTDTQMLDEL
Excerpt: (§1) HEK293T cells were transfected with gfp-αENaC where gfp was fused at the N-terminus of ENaC and unlabeled βENaC and γENaC using lipofectamine in 384 well plates as per the manufacturer's instructions and as published previously (see, e.g., Hobbs et al. Am J Physiol Lung Cell Mol Physiol. 2013 December; 305(12):L990-L1001. doi: 10.1152/ajplung.00103.2013. Epub 2013 October; Garland et al. Proc Natl Acad Sci USA. 2013 Oct. 1; 110(40):15973-8. doi: 10.1073/pnas.1311999110. Epub 2013 Sep. 16.; Tan et al. J Physiol. 2014 Dec. 1; 592(Pt 23):5251-68). Twenty-four hours later, peptide or vehicle control were added at t=0 and fluorescence was read using a Tecan M1000 plate reader 3 h later. Fluorescence was read at 488 nm (excitation)/510 nm (emission).

[2] = biological target: T2, alpha-ENaC (Homo sapiens, UniProt P37088); test: Internalization of alpha-ENaC in HEK293T cells, GFP-tagged alpha-ENaC co-expressed only with gamma ENaC and no beta-ENaC; type: cell-based; conditions: FIG. 6
T2 construct: expressed in transfected cells; host or cells: HEK293T
T2 sequence (P37088 1-669): T1 sequence (P37088 1-669)
Protocol: as §1, with “HEK293T cells were transfected with gfp-αENaC where gfp was fused at the N-terminus of ENaC and unlabeled βENaC and γENaC using lipofectamine in 384 well plates as per the manufacturer's instructions and as published previously (see, e.g., Hobbs et al.” left out

Structure (SMILES): CC[C@H](C)[C@H](NC(=O)[C@@H]1CCCN1C(=O)[C@H](CC(C)C)NC(=O)[C@@H](C)NC(=O)[C@@H](C)N)C(=O)N1CCC[C@H]1C(=O)N[C@@H](CC(C)C)C(=O)N[C@@H](CC(=O)O)C(=O)N[C@@H](CCC(N)=O)C(=O)N[C@H](C(=O)N[C@H](C)C(=O)N[C@H](C)C(N)=O)[C@@H](C)O [SEQ ID NO:128, aaLPIPLDQTaa] (H-[dA][dA]LPIPLDQT[dA][dA]-NH2)
- reduction of alpha-ENaC / functional receptor on the cell surface [1]: effective in reducing alpha-ENaC
- effect on alpha-ENaC [2]: no effect
